# Columns and labels:
# [1] = target: T1, human CCR6 (Homo sapiens, UniProt P51684); assay: CHO-K1 CCR6 chemotaxis assay towards CCL20; type: cell-based; settings: relative -Log IC50; CHO-K1 cells overexpressing human CCR6; migration towards 100 ng/ml CCL20; 4 h
# T1 sequence (P51684 1-374): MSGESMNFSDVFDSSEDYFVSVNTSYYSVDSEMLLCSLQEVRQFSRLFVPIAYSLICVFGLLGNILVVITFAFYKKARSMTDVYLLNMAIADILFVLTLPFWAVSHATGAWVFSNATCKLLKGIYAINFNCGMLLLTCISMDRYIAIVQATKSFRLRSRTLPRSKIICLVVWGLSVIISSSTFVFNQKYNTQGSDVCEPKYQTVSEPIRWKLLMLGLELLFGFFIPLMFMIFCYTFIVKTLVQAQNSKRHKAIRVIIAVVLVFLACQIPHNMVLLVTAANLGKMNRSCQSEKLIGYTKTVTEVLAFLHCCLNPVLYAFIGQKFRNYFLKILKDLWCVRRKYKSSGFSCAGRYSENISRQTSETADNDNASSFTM
# From the text: CHO-K1 CCR6 Chemotaxis Assay Towards CCL20
# Cells overexpressing human CCR6 were used in the chemotaxis assay (DiscoverX, cAMP Hunter™ CHO-K1 CCR6 Gi Cell Line). Growth medium of these cells consisted of DMEM/F12, non-essential Amino acids (1×NEAA, Gibco 11140050), 10% FBS and 1× pen/strep (Gibco 15140). For the chemotaxis assay, Corning Transwell plates were used with a pore size of 8 m (Corning 351164). Cells were harvested using trypsin and diluted to 4*10^6 cells/ml in chemotaxis medium (DMEM, 0.25% BSA, pen/strep). Compounds were four-fold serially diluted in DMSO. Further dilutions were made in chemotaxis medium. Cells were incubated with test compounds for 30 min at 37° C. prior to initiation of the assay (2*10^6 cells/ml). Final DMSO concentration in the assay was 0.2%. Wells of the Transwell plates were filled with 200 μl chemotaxis medium containing 100 ng/ml CCL20 (R&D systems 360-MP). 50 μl of the cell/compound suspension was added to the inserts of the Transwell plates (100,000 cells/insert). The Transwell plates were placed in an incubator at 37° C., 5% CO2 for 4 h. After 4 h, the number of migrated cells was quantified using CellTiter Glo (Promega). Percentage inhibition values were calculated based on the low and high signal obtained with 0.2% DMSO in chemotaxis medium without and with CCL20, respectively. The relative −Log IC50 was determined with GraphPad Prism 9 using a four-parameter dose-response model.
# [2] = target: T1, human CCR6; assay: Human CCR6-CRE reporter assay; type: cell-based; set-up: The second construct contained the open reading frame of human CCR6 in the pUNO1 backbone; host or cells: 293FT cells; settings: relative -Log IC50; 293FT cells transfected with human CCR6 and CRE-luciferase reporter; 6 μM Forskolin, 6 nM CCL20; 5 h
# Description: Human CCR6-CRE Reporter Assay
# 293FT cells were transfected with 2 constructs using TransIT-293 (Mirus). The first construct (pGL4.29, Promega) expressed the luciferase reporter gene luc2P in response to the binding of cAMP-induced CREB to the CREelement in its promoter. The second construct contained the open reading frame of human CCR6 in the pUNO1 backbone under the control of an enhanced CMV promoter (InVivoGen). 48 h after transfection, cells were harvested and diluted to 750,000 cells/ml in culture medium (DMEM, 10% FBS, 1× pen/strep (Gibco 15140)). Compounds were 2.5-fold serially diluted in DMSO. Further dilutions were made in assay medium (DMEM, 10% FBS, 1× pen/strep, 6 μM Forskolin, 6 nM CCL20). 4 μl of the compound solution was added to a white MW384 plate, followed by 20 μl of the cell suspension. Final DMSO concentration in the assay was 0.1%. The MW384 plate was placed in an incubator at 37° C., 5% CO2 for 5 h. Luciferase activity was determined by addition of 24 μl of a 2.5× diluted BriteLite luciferase solution (Perkin Elmer), followed by luminescence measurement using a VICTOR Plate reader (Perkin Elmer). […] The relative −Log IC50 was determined with GraphPad Prism 9 using a four-parameter dose-response model.
Compound,IC50 [1] [nM],IC50 [2] [nM]
"CC(C)c1cnc2ccc(-c3ccc(S(=N)(=O)[C@H]4CC[C@H](Nc5ccc(S(F)(F)(F)(F)F)cc5)CC4)cc3)cn12 (relative stereo) [Example 118, {4-[3-(propan-2-yl)imidazo[1,2-a]pyridin-6-yl]phenyl}[trans-4-{[4-(pentafluoro-λ^6-sulfanyl)phenyl]Amino}cyclohexyl](imino)-λ^6-sulfanone]",398,79.4
"N#Cc1c[nH]c2ccc(-c3ccc(S(=N)(=O)[C@H]4CC[C@H](Nc5ccc(S(F)(F)(F)(F)F)cc5)CC4)cc3)cc12 (single isomer, unassigned; (+)) [Example 126, (+)-5-(4-{[trans-4-{[4-(pentafluoro-λ^6-sulfanyl)phenyl]Amino}cyclohexyl]sulfonimidoyl}phenyl)-1H-indole-3-carbonitrile]",126,126
"N=S(=O)(c1ccc(-c2ccc3nccn3c2)cc1)[C@H]1CC[C@H](Nc2ccc(S(F)(F)(F)(F)F)cc2)CC1 (single isomer, unassigned; (+)) [Example 128, (+)-(4-{imidazo[1,2-a]pyridin-6-yl}phenyl)[trans-4-{[4-(pentafluoro-λ^6-sulfanyl)phenyl]Amino}cyclohexyl](imino)-λ^6-sulfanone]",251,126
"N#Cc1c[nH]c2ccc(-c3ccc(S(=N)(=O)[C@H]4CC[C@H](Nc5ccc(S(F)(F)(F)(F)F)cc5)CC4)cc3)cc12 (single isomer, unassigned; (-)) [Example 127, (−)-5-(4-{[trans-4-{[4-(pentafluoro-λ^6-sulfanyl)phenyl]Amino}cyclohexyl]sulfonimidoyl}phenyl)-1H-indole-3-carbonitrile]",251,316
"N=S(=O)(c1ccc(-c2ccc3nccn3c2)cc1)[C@H]1CC[C@H](Nc2ccc(S(F)(F)(F)(F)F)cc2)CC1 (single isomer, unassigned; (-)) [Example 129, (−)-(4-{imidazo[1,2-a]pyridin-6-yl}phenyl)[trans-4-{[4-(pentafluoro-λ^6-sulfanyl)phenyl]Amino}cyclohexyl](imino)-λ^6-sulfanone]",316,200
"NC(=O)c1cc(-c2ccc(S(=O)(=O)N3CC[C@H](Nc4ccc(S(F)(F)(F)(F)F)cc4)[C@@H](F)C3)cc2)ccn1 (stereo in doubt) [Example 83, 4-(4-{[(3S,4S)-3-fluoro-4-{[4-(pentafluoro-λ^6-sulfanyl)phenyl]Amino}piperidin-1-yl]sulfonyl}phenyl)pyridine-2-carboxamide]",50.1,316
"O=S(=O)(c1ccc(-c2ccc3nccn3c2)cc1)N1CCC(Nc2ccc(S(F)(F)(F)(F)F)cc2)CC1 [Example 1, 1-(4-{imidazo[1,2-a]pyridin-6-yl}benzenesulfonyl)-N-[4-(pentafluoro-λ^6-sulfanyl)phenyl]piperidin-4-amine]",79.4,126
"Cc1cnc2ccc(-c3ccc(S(=O)(=O)[C@H]4CC[C@H](Nc5ccc(S(F)(F)(F)(F)F)cc5)CC4)cc3)cn12 [Example 13, 4-(pentafluoro-λ^6-sulfanyl)-N-[trans-4-(4-{3-methylimidazo[1,2-a]pyridin-6-yl}benzenesulfonyl)cyclohexyl]aniline]",5.01,79.4
"O=C1Cc2cc(-c3ccc(S(=O)(=O)[C@H]4CC[C@H](Nc5ccc(S(F)(F)(F)(F)F)cc5)CC4)cc3)ccc2N1 [Example 14, 5-(4-{[trans-4-{[4-(pentafluoro-λ^6-sulfanyl)phenyl]Amino}cyclohexyl]sulfonyl}phenyl)-2,3-dihydro-1H-indol-2-one]",1260,200
"CN(C)C(=O)c1ccc(-c2ccc(S(=O)(=O)[C@H]3CC[C@H](Nc4ccc(S(F)(F)(F)(F)F)cc4)CC3)cc2)cc1 [Example 15, N,N-dimethyl-4′-{[trans-4-{[4-(pentafluoro-λ^6-sulfanyl)phenyl]Amino}cyclohexyl]sulfonyl}-[1,1′-biphenyl]-4-carboxamide]",63.1,79.4
"CNC(=O)c1ccc(-c2ccc(S(=O)(=O)[C@H]3CC[C@H](Nc4ccc(S(F)(F)(F)(F)F)cc4)CC3)cc2)cc1 [Example 16, N-methyl-4′-{[trans-4-{[4-(pentafluoro-λ^6-sulfanyl)phenyl]Amino}cyclohexyl]sulfonyl}-[1,1′-biphenyl]-4-carboxamide]",12.6,63.1
"O=C(NC1CC1)c1cccc(-c2ccc(S(=O)(=O)[C@H]3CC[C@H](Nc4ccc(S(F)(F)(F)(F)F)cc4)CC3)cc2)c1 [Example 144, N-cyclopropyl-4′-{[trans-4-{[4-(pentafluoro-λ^6-sulfanyl)phenyl]amino}cyclohexyl]sulfonyl}-[1,1′-biphenyl]-3-carboxamide]",–,50.1
"O=S(=O)(c1ccc(-c2ncc3[nH]ccc3n2)cc1)[C@H]1CC[C@H](Nc2ccc(S(F)(F)(F)(F)F)cc2)CC1 [Example 145, 4-(pentafluoro-λ^6-sulfanyl)-N-[trans-4-(4-{5H-pyrrolo[3,2-d]pyrimidin-2-yl}benzenesulfonyl)cyclohexyl]aniline]",–,1580
"O=S(=O)(c1ccc(-c2cc3cc[nH]c3cn2)cc1)[C@H]1CC[C@H](Nc2ccc(S(F)(F)(F)(F)F)cc2)CC1 [Example 146, 4-(pentafluoro-λ^6-sulfanyl)-N-[trans-4-(4-{1H-pyrrolo[2,3-c]pyridin-5-yl}benzenesulfonyl)cyclohexyl]aniline]",–,794
"Cc1cc(-c2ccc(S(=O)(=O)[C@H]3CC[C@H](Nc4ccc(S(F)(F)(F)(F)F)cc4)CC3)cc2)cn2ccnc12 [Example 149, 4-(pentafluoro-λ^6-sulfanyl)-N-[trans-4-(4-{8-methylimidazo[1,2-a]pyridin-6-yl}benzenesulfonyl)cyclohexyl]aniline]",–,63.1
"O=S(=O)(c1ccc(-c2ccc3nnc([C@@H]4CCNC4)n3c2)cc1)N1CCC(Nc2ccc(S(F)(F)(F)(F)F)cc2)CC1 [Example 165, N-[4-(pentafluoro-λ^6-sulfanyl)phenyl]-1-(4-{3-[(3R)-pyrrolidin-3-yl]-[1,2,4]triazolo[4,3-a]pyridin-6-yl}benzenesulfonyl)piperidin-4-amine]",–,794
"O=S(=O)(c1ccc(-c2ccc3nnc([C@H]4CCNC4)n3c2)cc1)N1CCC(Nc2ccc(S(F)(F)(F)(F)F)cc2)CC1 [Example 166, N-[4-(pentafluoro-λ^6-sulfanyl)phenyl]-1-(4-{3-[(3S)-pyrrolidin-3-yl]-[1,2,4]triazolo[4,3-a]pyridin-6-yl}benzenesulfonyl)piperidin-4-amine]",–,794
"CC(C)c1nnc2ccc(-c3ccc(S(=N)(=O)[C@H]4CC[C@H](Nc5ccc(S(F)(F)(F)(F)F)cn5)CC4)cc3)cn12 (stereo partly drawn) [Example 171, {4-[3-(propan-2-yl)-[1,2,4]triazolo[4,3-a]pyridin-6-yl]phenyl}[trans-4-{[5-(pentafluoro-λ^6-sulfanyl)pyridin-2-yl]amino}cyclohexyl](imino)-λ^6-sulfanone]",–,100
"Cc1cc(-c2ccc(S(=O)(=O)[C@H]3CC[C@H](Nc4ccc(S(F)(F)(F)(F)F)cn4)CC3)cc2)cn2c(C(C)C)nnc12 [Example 181, 5-(pentafluoro-λ^6-sulfanyl)-N-[trans-4-{4-[8-methyl-3-(propan-2-yl)-[1,2,4]triazolo[4,3-a]pyridin-6-yl]benzenesulfonyl}cyclohexyl]pyridin-2-amine]",–,25.1

# From patent US20260070902A1, “SULFONYL DERIVATIVES AS CCR6 INHIBITORS” (Hoffmann-La Roche Inc., priority 2022, published 2026)
